Source: ChEMBL document CHEMBL5331122, “Structure-Activity Relationship Study of Antimicrobial Peptide PE2 Delivered Novel Linear Derivatives with Potential of Eradicating Biofilms and Low Incidence of Drug Resistance” (J Med Chem, 2023)
≈ marks a conversion by molar mass, not a printed value. Where a SMILES comes first, the peptide text is derived from it. [ ]: non-standard residue; d: D form. The star is where a group is joined. Dab = NCC[C@H](N)C(=O)O; Hexanoyl = CCCCCC(=O)*

Columns and labels:
Escherichia coli = experiment: Antibacterial activity against Escherichia coli ATCC 25922 assessed as bacterial growth inhibition incubated for 18 hrs by broth microdilution method; type: functional
Klebsiella pneumoniae = experiment: Antibacterial activity against Klebsiella pneumoniae ATCC 700603 assessed as bacterial growth inhibition incubated for 18 hrs by broth microdilution method; type: functional
Pseudomonas aeruginosa = experiment: Antibacterial activity against Pseudomonas aeruginosa ATCC 27853 assessed as bacterial growth inhibition incubated for 18 hrs by broth microdilution method; type: functional
Staphylococcus aureus = experiment: Antibacterial activity against Staphylococcus aureus ATCC 25923 assessed as bacterial growth inhibition incubated for 18 hrs by broth microdilution method; type: functional
Bacillus subtilis = experiment: Antibacterial activity against Bacillus subtilis ATCC 23857 assessed as bacterial growth inhibition incubated for 18 hrs by broth microdilution method; type: functional
Enterococcus faecalis = experiment: Antibacterial activity against Enterococcus faecalis ATCC 29212 assessed as bacterial growth inhibition incubated for 18 hrs by broth microdilution method; type: functional
Erythrocyte = experiment: Hemolytic activity in mouse red blood cell assessed as hemolysis incubated for 1 hr; type: toxicity, cell-based; conditions: dose 4-256 µg/ml
[1] = Hemolytic activity in mouse red blood cells assessed as hemolysis at 256 microg/ml incubated for 1 hr relative to control; type: toxicity, cell-based, Erythrocyte; conditions: red blood cells (erythrocytes), at 256 µg/mL, read-out: Activity

Row | SMILES | MIC (Escherichia coli) | MIC (Klebsiella pneumoniae) | MIC (Pseudomonas aeruginosa) | MIC (Staphylococcus aureus) | MIC (Bacillus subtilis) | MIC (Enterococcus faecalis) | HC10 (Erythrocyte) | hemolysis at 1 h, 256 µg/mL [1]
1 | CCCCCC(=O)N[C@@H](CCN)C(=O)N[C@H](C(=O)N[C@@H](CCN)C(=O)N[C@H](Cc1ccccc1)C(=O)N[C@@H](CC(C)C)C(=O)N[C@@H](CCN)C(=O)N[C@@H](C(=O)N[C@@H](CC(C)C)C(=O)N[C@@H](CO)C(N)=O)C(C)C)[C@@H](C)CC (Hexanoyl-[Dab]I[Dab][dF]L[Dab][dV]LS-NH2) | 32 µg/mL (≈ 29.4 µM) | 64 µg/mL (≈ 58.8 µM) | 4 µg/mL (≈ 3.68 µM) | 64 µg/mL (≈ 58.8 µM) | 8 µg/mL (≈ 7.35 µM) | 128 µg/mL (≈ 118 µM) | 512 µg/mL | < 5%
2 | CCCCCC(=O)N[C@@H](CCN)C(=O)N[C@H](C(=O)N[C@H]1CCNC(=O)[C@H]([C@@H](C)O)NC(=O)[C@H](CC(C)C)NC(=O)[C@@H](C(C)C)NC(=O)[C@H](CCN)NC(=O)[C@H](CC(C)C)NC(=O)[C@@H](Cc2ccccc2)NC1=O)[C@@H](C)CC | 16 µg/mL (≈ 14.7 µM) | 64 µg/mL (≈ 59 µM) | 64 µg/mL (≈ 59 µM) | 32 µg/mL (≈ 29.5 µM) | 4 µg/mL (≈ 3.69 µM) | 64 µg/mL (≈ 59 µM) | 512 µg/mL | < 5%
3 | CCCCCC(=O)N[C@@H](CCN)C(=O)N[C@H](C(=O)N[C@@H](CCN)C(=O)N[C@H](Cc1ccccc1)C(=O)N[C@@H](CC(C)C)C(=O)N[C@@H](CCN)C(=O)N[C@@H](C(=O)N[C@@H](CC(C)C)C(=O)N[C@@H](CCCCN)C(N)=O)C(C)C)[C@@H](C)CC | 64 µg/mL (≈ 56.7 µM) | 32 µg/mL (≈ 28.3 µM) | 2 µg/mL (≈ 1.77 µM) | 64 µg/mL (≈ 56.7 µM) | 8 µg/mL (≈ 7.08 µM) | 128 µg/mL (≈ 113 µM) | 512 µg/mL | < 5%
4 | CCCCCC(=O)N[C@H]1CCNC(=O)[C@H]([C@@H](C)O)NC(=O)[C@H](CC(C)C)NC(=O)[C@@H](C(C)C)NC(=O)[C@H](CCN)NC(=O)[C@H](CC(C)C)NC(=O)[C@@H](Cc2ccccc2)NC(=O)[C@H](CCN)NC(=O)[C@H]([C@@H](C)CC)NC1=O | 32 µg/mL (≈ 29.5 µM) | 64 µg/mL (≈ 59 µM) | > 128 µg/mL | > 128 µg/mL | 128 µg/mL (≈ 118 µM) | > 128 µg/mL | 512 µg/mL | < 5%
5 | CCCCCC(=O)N[C@@H](CCN)C(=O)N[C@H](C(=O)N[C@@H](CCN)C(=O)N[C@H](Cc1ccccc1)C(=O)N[C@@H](CC(C)C)C(=O)N[C@@H](CCN)C(=O)N[C@@H](C(=O)N[C@@H](CC(C)C)C(=O)N[C@H](C(N)=O)[C@@H](C)CC)C(C)C)[C@@H](C)CC | 16 µg/mL (≈ 14.4 µM) | 32 µg/mL (≈ 28.7 µM) | 4 µg/mL (≈ 3.59 µM) | 32 µg/mL (≈ 28.7 µM) | 8 µg/mL (≈ 7.18 µM) | 128 µg/mL (≈ 115 µM) | 512 µg/mL | < 5%
6 | CCCCCC(=O)N[C@@H](CCN)C(=O)N[C@H](C(=O)N[C@@H](CCN)C(=O)N[C@H](Cc1ccccc1)C(=O)N[C@@H](CC(C)C)C(=O)N[C@@H](CCN)C(=O)N[C@@H](C(=O)N[C@@H](CC(C)C)C(=O)N[C@@H](C)C(N)=O)C(C)C)[C@@H](C)CC | 32 µg/mL (≈ 29.8 µM) | 64 µg/mL (≈ 59.7 µM) | 4 µg/mL (≈ 3.73 µM) | 64 µg/mL (≈ 59.7 µM) | 8 µg/mL (≈ 7.46 µM) | > 128 µg/mL | 512 µg/mL | < 5%
7 | CCCCCC(=O)N[C@@H](CCN)C(=O)N[C@H](C(=O)N[C@@H](CCN)C(=O)N[C@H](Cc1ccccc1)C(=O)N[C@@H](CC(C)C)C(=O)N[C@@H](CCN)C(=O)N[C@@H](C(=O)N[C@@H](CC(C)C)C(=O)N[C@@H](Cc1ccccc1)C(N)=O)C(C)C)[C@@H](C)CC | 16 µg/mL (≈ 13.9 µM) | 32 µg/mL (≈ 27.9 µM) | 4 µg/mL (≈ 3.48 µM) | 16 µg/mL (≈ 13.9 µM) | 4 µg/mL (≈ 3.48 µM) | 64 µg/mL (≈ 55.7 µM) | 512 µg/mL | < 5%
8 | CC[C@H](C)[C@@H]1NC(=O)[C@H](CCN)NC(=O)[C@H](CC(C)C)NC(=O)[C@H]([C@@H](C)O)NC(=O)[C@H](CC(C)C)NC(=O)[C@@H](C(C)C)NC(=O)[C@H](CCN)NC(=O)[C@H](CC(C)C)NC(=O)[C@@H](Cc2ccccc2)NC(=O)[C@H](CCN)NC1=O | 32 µg/mL (≈ 29.1 µM) | 32 µg/mL (≈ 29.1 µM) | 16 µg/mL (≈ 14.5 µM) | > 128 µg/mL | 16 µg/mL (≈ 14.5 µM) | > 128 µg/mL | 512 µg/mL | < 5%
9 | CCCCCC(=O)N[C@@H](CCN)C(=O)N[C@H](C(=O)N[C@@H](CCN)C(=O)N[C@H](Cc1ccccc1)C(=O)N[C@@H](CC(C)C)C(=O)N[C@@H](CCN)C(=O)N[C@@H](C(=O)N[C@@H](CC(C)C)C(=O)N[C@@H](Cc1ccc(O)cc1)C(N)=O)C(C)C)[C@@H](C)CC | 4 µg/mL (≈ 3.43 µM) | 8 µg/mL (≈ 6.87 µM) | 16 µg/mL (≈ 13.7 µM) | 16 µg/mL (≈ 13.7 µM) | 4 µg/mL (≈ 3.43 µM) | 64 µg/mL (≈ 55 µM) | 512 µg/mL | < 5%
10 | CC[C@H](C)[C@H](NC(=O)[C@H](CCN)NC(=O)CC(O)C(C)C)C(=O)N[C@@H](CCN)C(=O)N[C@H](Cc1ccccc1)C(=O)N[C@@H](CC(C)C)C(=O)N[C@@H](CCN)C(=O)N[C@@H](C(=O)N[C@@H](CC(C)C)C(=O)N[C@H](C(N)=O)[C@@H](C)O)C(C)C (stereo not given in full) | 32 µg/mL (≈ 28.6 µM) | 64 µg/mL (≈ 57.2 µM) | 4 µg/mL (≈ 3.58 µM) | > 128 µg/mL | 8 µg/mL (≈ 7.15 µM) | > 128 µg/mL | 512 µg/mL | < 2%
11 | CCCCCCCCCCCC(=O)N[C@@H](CCN)C(=O)N[C@H](C(=O)N[C@@H](CCN)C(=O)N[C@H](Cc1ccccc1)C(=O)N[C@@H](CC(C)C)C(=O)N[C@@H](CCN)C(=O)N[C@@H](C(=O)N[C@@H](CC(C)C)C(=O)N[C@H](C(N)=O)[C@@H](C)O)C(C)C)[C@@H](C)CC | 4 µg/mL (≈ 3.37 µM) | 8 µg/mL (≈ 6.74 µM) | 8 µg/mL (≈ 6.74 µM) | 16 µg/mL (≈ 13.5 µM) | 8 µg/mL (≈ 6.74 µM) | 4 µg/mL (≈ 3.37 µM) | 8 µg/mL | 
12 | CCCCCCCCCCCCC(=O)N[C@@H](CCN)C(=O)N[C@H](C(=O)N[C@@H](CCN)C(=O)N[C@H](Cc1ccccc1)C(=O)N[C@@H](CC(C)C)C(=O)N[C@@H](CCN)C(=O)N[C@@H](C(=O)N[C@@H](CC(C)C)C(=O)N[C@H](C(N)=O)[C@@H](C)O)C(C)C)[C@@H](C)CC | 8 µg/mL (≈ 6.66 µM) | 16 µg/mL (≈ 13.3 µM) | 16 µg/mL (≈ 13.3 µM) | 32 µg/mL (≈ 26.7 µM) | 16 µg/mL (≈ 13.3 µM) | 8 µg/mL (≈ 6.66 µM) | 8 µg/mL | 

The next lines start with results.

Row | MIC (Escherichia coli) | MIC (Klebsiella pneumoniae) | MIC (Pseudomonas aeruginosa) | MIC (Staphylococcus aureus) | MIC (Bacillus subtilis) | MIC (Enterococcus faecalis) | SMILES | HC10 (Erythrocyte) | hemolysis at 1 h, 256 µg/mL [1]
13 | 16 µg/mL (≈ 14.5 µM) | 32 µg/mL (≈ 29 µM) | 4 µg/mL (≈ 3.63 µM) | 32 µg/mL (≈ 29 µM) | 4 µg/mL (≈ 3.63 µM) | 128 µg/mL (≈ 116 µM) | CCCCCC(=O)N[C@@H](CCN)C(=O)N[C@H](C(=O)N[C@@H](CCN)C(=O)N[C@H](Cc1ccccc1)C(=O)N[C@@H](CC(C)C)C(=O)N[C@@H](CCN)C(=O)N[C@@H](C(=O)N[C@@H](CC(C)C)C(=O)N[C@H](C(N)=O)[C@@H](C)O)C(C)C)[C@@H](C)CC | 512 µg/mL | < 10%
14 | 128 µg/mL (≈ 127 µM) | > 128 µg/mL | 32 µg/mL (≈ 31.9 µM) | > 128 µg/mL | 32 µg/mL (≈ 31.9 µM) | > 128 µg/mL | CC[C@H](C)[C@H](NC(=O)[C@@H](N)CCN)C(=O)N[C@@H](CCN)C(=O)N[C@H](Cc1ccccc1)C(=O)N[C@@H](CC(C)C)C(=O)N[C@@H](CCN)C(=O)N[C@@H](C(=O)N[C@@H](CC(C)C)C(=O)N[C@H](C(N)=O)[C@@H](C)O)C(C)C | 512 µg/mL | 
15 | 4 µg/mL (≈ 3.45 µM) | 4 µg/mL (≈ 3.45 µM) | 4 µg/mL (≈ 3.45 µM) | 4 µg/mL (≈ 3.45 µM) | 4 µg/mL (≈ 3.45 µM) | 8 µg/mL (≈ 6.91 µM) | CCCCCCCCCC(=O)N[C@@H](CCN)C(=O)N[C@H](C(=O)N[C@@H](CCN)C(=O)N[C@H](Cc1ccccc1)C(=O)N[C@@H](CC(C)C)C(=O)N[C@@H](CCN)C(=O)N[C@@H](C(=O)N[C@@H](CC(C)C)C(=O)N[C@H](C(N)=O)[C@@H](C)O)C(C)C)[C@@H](C)CC | 32 µg/mL | 
16 | 16 µg/mL (≈ 14.7 µM) | 128 µg/mL (≈ 118 µM) | 128 µg/mL (≈ 118 µM) | 32 µg/mL (≈ 29.5 µM) | 4 µg/mL (≈ 3.69 µM) | > 128 µg/mL | CCCCCC(=O)N[C@@H](CCN)C(=O)N[C@H](C(=O)N[C@@H](CCN)C(=O)N[C@H](Cc1ccccc1)C(=O)N[C@@H](CC(C)C)C(=O)N[C@H]1CCNC(=O)[C@H]([C@@H](C)O)NC(=O)[C@H](CC(C)C)NC(=O)[C@@H](C(C)C)NC1=O)[C@@H](C)CC | 512 µg/mL | < 5%
17 | 32 µg/mL (≈ 28.6 µM) | 64 µg/mL (≈ 57.2 µM) | 4 µg/mL (≈ 3.58 µM) | 128 µg/mL (≈ 114 µM) | 8 µg/mL (≈ 7.15 µM) | > 128 µg/mL | CCC[C@H](O)CC(=O)N[C@@H](CCN)C(=O)N[C@H](C(=O)N[C@@H](CCN)C(=O)N[C@H](Cc1ccccc1)C(=O)N[C@@H](CC(C)C)C(=O)N[C@@H](CCN)C(=O)N[C@@H](C(=O)N[C@@H](CC(C)C)C(=O)N[C@H](C(N)=O)[C@@H](C)O)C(C)C)[C@@H](C)CC | 512 µg/mL | < 2%
18 | 16 µg/mL (≈ 13.5 µM) | 32 µg/mL (≈ 26.9 µM) | 4 µg/mL (≈ 3.37 µM) | 8 µg/mL (≈ 6.74 µM) | 4 µg/mL (≈ 3.37 µM) | 32 µg/mL (≈ 26.9 µM) | CCCCCC(=O)N[C@@H](CCN)C(=O)N[C@H](C(=O)N[C@@H](CCN)C(=O)N[C@H](Cc1ccccc1)C(=O)N[C@@H](CC(C)C)C(=O)N[C@@H](CCN)C(=O)N[C@@H](C(=O)N[C@@H](CC(C)C)C(=O)N[C@@H](Cc1c[nH]c2ccccc12)C(N)=O)C(C)C)[C@@H](C)CC | 512 µg/mL | < 5%
